The experiment has as its system A431. As to the kind of experiment: Dose-dependent change in panel protein levels by western blot. For BAG4 protein level change: key: (+) for increase; (−) for decrease; N.C.: (N.C) for no change; (~) for not detected. For CAD17 protein level change: key: (+) for increase; (−) for decrease; N.C.: (N.C) for no change; (~) for not detected. For CBFB protein level change: key: (+) for increase; (−) for decrease; N.C.: (N.C) for no change; (~) for not detected. For Claudin 1 protein level change: key: (+) for increase; (−) for decrease; N.C.: (N.C) for no change; (~) for not detected. It is filed as cell-based, human. Particulars: for BAG4 protein level change / CAD17 protein level change / CBFB protein level change / Claudin 1 protein level change / ELAVL-1 protein level change / EpCAM protein level change / HSPG2 protein level change / PDCD4 protein level change / PRDX6 protein level change / QARS protein level change / S100A9 protein level change / SERPINE1 protein level change / SNX5 protein level change / TESTICAN2 protein level change / TNFAIP2 protein level change / TROP-2 protein level change: dose-dependent, 16 h, western blot. In general terms: In western blotting, separated proteins are transferred to a membrane and probed.

Each structure is given as a SMILES string.

Description: Lysates were sonicated for 10 minutes, heated at 95° C. for 10 minutes, and centrifuged for 15 minutes at 20,000×g. The supernatant was cleared through a 0.22-micron filter and protein concentration was determined (BCA, BioRad, Hercules, Calif.). Lysates were subject to SDS-PAGE and subsequent immunoblot. For in vivo experiments, mouse tumor pieces from 5 mice were pooled and suspended in RAF buffer and homogenized with a high-speed blender. The homogenate was centrifuged for 5 min at 200×g. The supernatant was sonicated on ice for 2 minutes and centrifuged for 1 hr at 12,000×g. The supernatant (soluble fraction) was cleared through a 0.22-micron filter and processed as above. The pellet (insoluble fraction) was resuspended in RAF buffer with 2% SDS and DTT, heated at 95° C. and sonicated prior to processing.

Turning to `O=c1[nH]c2ccccc2n1C1CCN(Cc2ccc(-c3nc4cc5[nH]cnc5cc4nc3-c3ccccc3)cc2)CC1` [A6730], the “BAG4 protein level change” value is “+”, the “CAD17 protein level change” value is “N.C”, the “CBFB protein level change” value was “+” and the “Claudin 1 protein level change” value is given as “+”. The “ELAVL-1 protein level change” value is “N.C”, the “EpCAM protein level change” value is reported as “N.C”, the “HSPG2 protein level change” value is recorded as “N.C” and the “PDCD4 protein level change” value is recorded as “N.C”. The “PRDX6 protein level change” value is reported as “N.C”, the “QARS protein level change” value was “+”, the “S100A9 protein level change” value was “N.C” and the “SERPINE1 protein level change” value is “N.C”. Besides, the “SNX5 protein level change” value is reported as “N.C”, the “TESTICAN2 protein level change” value is recorded as “N.C”, the “TNFAIP2 protein level change” value was “+” and the “TROP-2 protein level change” value is recorded as “N.C”.
Consider `COc1cccc(-c2cc(=O)c3ccccc3o2)c1N` [PD98059], for which the “BAG4 protein level change” value was “N.C”, the “CAD17 protein level change” value is reported as “+”, the “CBFB protein level change” value is listed as “N.C” and the “Claudin 1 protein level change” value is “+”. Moreover, the “ELAVL-1 protein level change” value is given as “N.C”, the “EpCAM protein level change” value is “N.C”, the “HSPG2 protein level change” value is given as “N.C” and the “PDCD4 protein level change” value is listed as “+”. Moreover, the “PRDX6 protein level change” value is recorded as “+”, the “QARS protein level change” value is reported as “N.C”, the “S100A9 protein level change” value is on record as “+” and the “SERPINE1 protein level change” value is reported as “+”. Moreover, the “SNX5 protein level change” value is given as “N.C”, the “TESTICAN2 protein level change” value is on record as “+”, the “TNFAIP2 protein level change” value is reported as “N.C” and the “TROP-2 protein level change” value is given as “N.C”. Where the note is “AKT or MAPK pathway inhibition”, the Claudin-1 expression entry is recorded as “changes in expression”; the “panel proteins that showed a change in abundance” value was “CAD17, PDCD4, S100A9, SERPINE1, and Testican-2”; the “panel proteins unchanged by treatment” value was “ELAVL-1, EpCAM, HSPG2, TROP2, and SNX5”.

For the origin of these results see patent US9588122B2, “Methods of treating cancer sensitive to anti-EGFR therapy and modifying treatment using peroxiredoxin 6 biomarker” (The Board of Trustees of the Leland Stanford Junior …, priority 2013, dated 2017).
